Measurements from PubChem BioAssay AID1963846 (Molecular Pharmacology Branch, DTP, NCI, 2024).

System: 454973-116-R2-J3-PDC complex spheroid viability
Assay: Anticancer human tumor 454973-116-R2-J3-PDC patient-derived pancreatic carcinoma cell line growth inhibition [POLQ]
Details: for IC50: curve of first compound; for viability, T/C: stronger effect = lower value
Outline: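 Growth inhibition in 3D: complex spheroids (tumor PDC, HUVEC, MSC) treated with POLQ inhibitor combinations; where Cmax unknown, highest tested concentration 10 microM, except SN-38 at 1 microM.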

[1] = second compound 0.0316 µM, first compound 0.0316 µM
[2] = second compound 0.0316 µM, first compound 0.1 µM
[3] = second compound 0.0316 µM, first compound 0.316 µM
[4] = second compound 0.0316 µM, first compound 1 µM
[5] = second compound 0.0316 µM, first compound 3.16 µM
[6] = second compound 0.0316 µM, first compound 10 µM
[7] = second compound 0.1 µM, first compound 0.0316 µM
[8] = second compound 0.1 µM, first compound 0.1 µM
[9] = second compound 0.1 µM, first compound 0.316 µM
[10] = second compound 0.1 µM, first compound 1 µM
[11] = second compound 0.1 µM, first compound 3.16 µM
[12] = second compound 0.1 µM, first compound 10 µM
[13] = second compound 0.316 µM, first compound 0.0316 µM
[14] = second compound 0.316 µM, first compound 0.1 µM
[15] = second compound 0.316 µM, first compound 0.316 µM
[16] = second compound 0.316 µM, first compound 1 µM
[17] = second compound 0.316 µM, first compound 3.16 µM
[18] = second compound 0.316 µM, first compound 10 µM
[19] = second compound 1 µM, first compound 0.0316 µM
[20] = second compound 1 µM, first compound 0.1 µM
[21] = second compound 1 µM, first compound 0.316 µM
[22] = second compound 1 µM, first compound 1 µM
[23] = second compound 1 µM, first compound 3.16 µM
[24] = second compound 1 µM, first compound 10 µM
[25] = second compound 3.16 µM, first compound 0.0316 µM
[26] = second compound 3.16 µM, first compound 0.1 µM
[27] = second compound 3.16 µM, first compound 0.316 µM
[28] = second compound 3.16 µM, first compound 1 µM
[29] = second compound 3.16 µM, first compound 3.16 µM
[30] = second compound 3.16 µM, first compound 10 µM
[31] = second compound 10 µM, first compound 0.0316 µM
[32] = second compound 10 µM, first compound 0.1 µM
[33] = second compound 10 µM, first compound 0.316 µM
[34] = second compound 10 µM, first compound 1 µM
[35] = second compound 10 µM, first compound 3.16 µM
[36] = second compound 10 µM, first compound 10 µM
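Further: spheroids exposed to drugs for seven days before measurement.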
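Wherever viability, T/C is given: percent viability relative to DMSO vehicle control wells taken as 100%.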

Question: Which results are given for COc1cc(C2c3cc4c(cc3C(OC3OC5COC(C)OC5C(O)C3O)C3COC(=O)C23)OCO4)cc(OC)c1O (stereo unspecified) + Cc1cccc(N(C)C(=O)C2C(O)CCN2c2nc(C)cc(C(F)(F)F)c2C#N)c1?
Answer: IC50 (second compound 0.0316 µM): 1.5 µM; IC50 (second compound 0.1 µM): 1.52 µM; IC50 (second compound 0.316 µM): 1.36 µM; IC50 (second compound 1 µM): 1.3 µM; IC50 (second compound 3.16 µM): 1.07 µM; IC50 (second compound 10 µM): 0.886 µM; viability, T/C [1]: 97.9%; viability, T/C [2]: 108%; viability, T/C [3]: 87.6%; viability, T/C [4]: 66.1%; viability, T/C [5]: 23.4%; viability, T/C [6]: 10.1%; viability, T/C [7]: 102%; viability, T/C [8]: 99.5%; viability, T/C [9]: 89.6%; viability, T/C [10]: 65.8%; viability, T/C [11]: 24%; viability, T/C [12]: 11.7%; viability, T/C [13]: 101%; viability, T/C [14]: 102%; viability, T/C [15]: 87.7%; viability, T/C [16]: 61.5%; viability, T/C [17]: 21.8%; viability, T/C [18]: 9.93%; viability, T/C [19]: 111%; viability, T/C [20]: 104%; viability, T/C [21]: 88.3%; viability, T/C [22]: 60.6%; viability, T/C [23]: 21.1%; viability, T/C [24]: 11.1%; viability, T/C [25]: 106%; viability, T/C [26]: 92.9%; viability, T/C [27]: 82.1%; viability, T/C [28]: 52.5%; viability, T/C [29]: 23.1%; viability, T/C [30]: 13.2%; viability, T/C [31]: 111%; viability, T/C [32]: 105%; viability, T/C [33]: 78.5%; viability, T/C [34]: 47%; viability, T/C [35]: 21.7%; viability, T/C [36]: 10.5%

Question: How did the IC50 (second compound 0.0316 µM) turn out when Nc1ccn(C2OC(CO)C(O)C2(F)F)c(=O)n1 (stereo unspecified) + Cc1cccc(N(C)C(=O)C2C(O)CCN2c2nc(C)cc(C(F)(F)F)c2C#N)c1 was run?
Answer: The IC50 was under 0.0316 µM.

Question: What about the IC50 (second compound 0.1 µM) of the same molecule?
Answer: Its IC50 is under 0.0316 µM.

Question: And the IC50 (second compound 0.316 µM)?
Answer: Its IC50 is under 0.0316 µM.

Question: And the IC50 (second compound 1 µM)?
Answer: Its IC50 is under 0.0316 µM.

Question: And the IC50 (second compound 3.16 µM)?
Answer: The IC50 was under 0.0316 µM.

Question: And the IC50 (second compound 10 µM)?
Answer: The IC50 was under 0.0316 µM.

Question: What about the viability, T/C [1] of the same molecule?
Answer: Its viability, T/C is 13.4%.

Question: And the viability, T/C [2]?
Answer: Its viability, T/C is 13.4%.

Question: What about the viability, T/C [3] of the same molecule?
Answer: Its viability, T/C is 14.2%.

Question: What about the viability, T/C [4] of the same molecule?
Answer: Its viability, T/C is 12.5%.

Question: And the viability, T/C [5]?
Answer: The viability, T/C was 12.3%.

Question: And the viability, T/C [6]?
Answer: The viability, T/C was 12.7%.

Question: What about the viability, T/C [7] of the same molecule?
Answer: The viability, T/C was 16.2%.

Question: What about the viability, T/C [8] of the same molecule?
Answer: The viability, T/C was 11.9%.

Question: And the viability, T/C [9]?
Answer: The viability, T/C was 13.7%.

Question: What about the viability, T/C [10] of the same molecule?
Answer: Its viability, T/C is 15.5%.

Question: What about the viability, T/C [11] of the same molecule?
Answer: The viability, T/C was 13.5%.

Question: And the viability, T/C [12]?
Answer: Its viability, T/C is 13.9%.

Question: What about the viability, T/C [13] of the same molecule?
Answer: Its viability, T/C is 15.1%.

Question: What about the viability, T/C [14] of the same molecule?
Answer: Its viability, T/C is 13.8%.

Question: What about the viability, T/C [15] of the same molecule?
Answer: The viability, T/C was 14.2%.

Question: And the viability, T/C [16]?
Answer: The viability, T/C was 14.2%.

Question: And the viability, T/C [17]?
Answer: The viability, T/C was 13.6%.

Question: What about the viability, T/C [18] of the same molecule?
Answer: Its viability, T/C is 12.8%.

Question: And the viability, T/C [19]?
Answer: Its viability, T/C is 14.1%.

Question: And the viability, T/C [20]?
Answer: Its viability, T/C is 11.7%.

Question: And the viability, T/C [21]?
Answer: Its viability, T/C is 13.9%.

Question: And the viability, T/C [22]?
Answer: The viability, T/C was 14.6%.

Question: What about the viability, T/C [23] of the same molecule?
Answer: The viability, T/C was 12.5%.

Question: And the viability, T/C [24]?
Answer: Its viability, T/C is 11.8%.

Question: And the viability, T/C [25]?
Answer: The viability, T/C was 16.9%.

Question: What about the viability, T/C [26] of the same molecule?
Answer: Its viability, T/C is 13.5%.

Question: What about the viability, T/C [27] of the same molecule?
Answer: The viability, T/C was 14.8%.

Question: What about the viability, T/C [28] of the same molecule?
Answer: The viability, T/C was 13.8%.

Question: And the viability, T/C [29]?
Answer: The viability, T/C was 12.5%.

Question: And the viability, T/C [30]?
Answer: Its viability, T/C is 14%.

Question: What about the viability, T/C [31] of the same molecule?
Answer: Its viability, T/C is 13.6%.

Question: And the viability, T/C [32]?
Answer: Its viability, T/C is 14.2%.

Question: And the viability, T/C [33]?
Answer: Its viability, T/C is 17.1%.

Question: What about the viability, T/C [34] of the same molecule?
Answer: The viability, T/C was 14.2%.

Question: And the viability, T/C [35]?
Answer: Its viability, T/C is 13.8%.

Question: What about the viability, T/C [36] of the same molecule?
Answer: Its viability, T/C is 11.9%.

Question: O=c1[nH]cc(F)c(=O)[nH]1 + Cc1cccc(N(C)C(=O)C2C(O)CCN2c2nc(C)cc(C(F)(F)F)c2C#N)c1 was tested. Which IC50 (second compound 0.0316 µM) did it give?
Answer: The IC50 was 2.93 µM.

Question: What about the IC50 (second compound 0.1 µM) of the same molecule?
Answer: Its IC50 is 2.68 µM.

Question: What about the IC50 (second compound 0.316 µM) of the same molecule?
Answer: The IC50 was 2.56 µM.

Question: And the IC50 (second compound 1 µM)?
Answer: Its IC50 is 2.57 µM.

Question: What about the IC50 (second compound 3.16 µM) of the same molecule?
Answer: The IC50 was 2.53 µM.

Question: And the IC50 (second compound 10 µM)?
Answer: The IC50 was 2.54 µM.

Question: What about the viability, T/C [1] of the same molecule?
Answer: The viability, T/C was 99.3%.

Question: What about the viability, T/C [2] of the same molecule?
Answer: Its viability, T/C is 104%.

Question: What about the viability, T/C [3] of the same molecule?
Answer: Its viability, T/C is 98.1%.

Question: What about the viability, T/C [4] of the same molecule?
Answer: The viability, T/C was 104%.

Question: And the viability, T/C [5]?
Answer: The viability, T/C was 46.3%.

Question: What about the viability, T/C [6] of the same molecule?
Answer: Its viability, T/C is 30.7%.

Question: And the viability, T/C [7]?
Answer: The viability, T/C was 109%.

Question: And the viability, T/C [8]?
Answer: The viability, T/C was 108%.

Question: What about the viability, T/C [9] of the same molecule?
Answer: Its viability, T/C is 111%.

Question: What about the viability, T/C [10] of the same molecule?
Answer: The viability, T/C was 102%.

Question: What about the viability, T/C [11] of the same molecule?
Answer: The viability, T/C was 41.1%.

Question: And the viability, T/C [12]?
Answer: The viability, T/C was 33.1%.

Question: What about the viability, T/C [13] of the same molecule?
Answer: The viability, T/C was 107%.

Question: What about the viability, T/C [14] of the same molecule?
Answer: Its viability, T/C is 115%.

Question: What about the viability, T/C [15] of the same molecule?
Answer: The viability, T/C was 123%.

Question: What about the viability, T/C [16] of the same molecule?
Answer: Its viability, T/C is 96.9%.

Question: And the viability, T/C [17]?
Answer: The viability, T/C was 40.1%.

Question: And the viability, T/C [18]?
Answer: Its viability, T/C is 37%.

Question: What about the viability, T/C [19] of the same molecule?
Answer: The viability, T/C was 119%.

Question: What about the viability, T/C [20] of the same molecule?
Answer: The viability, T/C was 112%.

Question: What about the viability, T/C [21] of the same molecule?
Answer: The viability, T/C was 112%.

Question: What about the viability, T/C [22] of the same molecule?
Answer: Its viability, T/C is 95%.

Question: What about the viability, T/C [23] of the same molecule?
Answer: Its viability, T/C is 40%.

Question: And the viability, T/C [24]?
Answer: The viability, T/C was 31.6%.

Question: What about the viability, T/C [25] of the same molecule?
Answer: Its viability, T/C is 116%.

Question: What about the viability, T/C [26] of the same molecule?
Answer: Its viability, T/C is 118%.

Question: What about the viability, T/C [27] of the same molecule?
Answer: Its viability, T/C is 108%.

Question: And the viability, T/C [28]?
Answer: Its viability, T/C is 93.4%.

Question: What about the viability, T/C [29] of the same molecule?
Answer: The viability, T/C was 38.9%.

Question: What about the viability, T/C [30] of the same molecule?
Answer: The viability, T/C was 32%.

Question: What about the viability, T/C [31] of the same molecule?
Answer: The viability, T/C was 116%.

Question: And the viability, T/C [32]?
Answer: The viability, T/C was 108%.

Question: And the viability, T/C [33]?
Answer: Its viability, T/C is 104%.

Question: What about the viability, T/C [34] of the same molecule?
Answer: Its viability, T/C is 92.2%.

Question: And the viability, T/C [35]?
Answer: Its viability, T/C is 39.6%.

Question: And the viability, T/C [36]?
Answer: The viability, T/C was 30.9%.
